Molecules are shown by their SMILES. Where only a bound is given, the exact number is not on record here.

What all share (type): biochemical
Test [1] addresses GST-JAK3(811-1124) (Homo sapiens (Human), UniProt P52333). Kind of test: Caliper mobility shift kinase assay, JAK3. The note with it: JAK3tide 2 μM, ATP 80 or 18 μM, 60 minutes at 30° C. The source says:
(§1) Measurement of the Effect on the JAK Enzyme
(§2) All four kinases of the JAK/TYK-kinase family were used as purified recombinant GST-fusion proteins, containing the active kinase domains. GST-JAK1(866-1154), GST-JAK3(811-1124), and GST-TYK2(888-1187) were expressed and purified by affinity chromatography at the EPK biology unit.
(§3) The kinase assays were based on the Caliper mobility shift assay using the LabChip 3000 systems. This technology is similar to capillary electrophoresis and uses charge driven separation of substrate and product in a microfluidic chip.
(§4) All kinase reactions were performed in 384 well microtiter plates in a total reaction volume of
18 μI. The assay plates were prepared with 0.1 μI per well of test compound in the appropriate test concentration, as described under the section “preparation of compound dilutions”. The reactions were started by combining 9 μI of substrate mix (consisting of peptide and ATP) with 9 μI of kinase dilution. The reactions were incubated for 60 minutes at 30° C. and stopped by adding 70 μI of stop buffer (100 mM Hepes, 5% DMSO, 0.1% Coating reagent, 10 mM EDTA, 0.015% Brij 35).
Fluorescently labeled synthetic peptides were used as substrates in all reactions. A peptide derived from the sequence of IRS-1 (IRS-1 peptide, FITC-Ahx-[…]-NH2) was used for JAK1 and TYK2 and a peptide named JAK3tide (FITC-[…]-NH2) for JAK3. Specific assay conditions are described in Table 4:
(§5) The terminated reactions were transferred to the Caliper LabChip 3000 reader and the turnover of each reaction was measured by determining the substrate/product ratio.
(§6) Preparation of Compound Dilutions
(§7) Test compounds were dissolved in DMSO (10 mM) and transferred into 1.4 mL flatbottom or V-shaped Matrix tubes carrying a unique 2D matrix chip by individual compound hubs. The numbers of these chips were distinctively linked to the individual compound identification numbers. The stock solutions were stored at −20° C. if not used immediately. For the test procedure the vials were defrosted and identified by a scanner whereby a working sheet was generated that guided the subsequent working steps. Compound dilutions were made in 96 well plates. This format enabled the assay of maximally 40 individual test compounds at 8 concentrations (single points) including 4 reference compounds. The dilution protocol included the production of pre-dilution plates, master plates and assay plates:
(§8) Pre-dilution plates: 96 polypropylene well plates were used as pre-dilution plates. A total of 4 pre-dilution plates were prepared including 10 test compounds each on the plate positions A1-A10, one standard compound at A11 and one DMSO control at A12. All dilution steps were done on a HamiltonSTAR robot.
(§9) Master plates: 100 μI of individual compound dilutions including standard compound and controls of the 4 “pre-dilution plates” were transferred into a 384 “master plate” including the following concentrations 1′820, 564, 182, 54.6, 18.2, 5.46, 1.82 and 0.546 μM, respectively in 90% of DMSO.
Assay plates: Identical assay plates were then prepared by pipetting 100 nL of compound dilutions of the master plates into 384-well “assay plates”. In the following the compounds were mixed with 9 μI of assays components plus 9 μI enzyme corresponding to a 1:181 dilution steps enabling the final concentration of 10, 3.0, 1.0, 0.3, 0.1, 0.03, 0.01 and 0.003 μM, respectively. The preparation of the master plates were handled by the Matrix PlateMate Plus robot and replication of assay plates by the HummingBird robot.

Test [2] has as its target GST-JAK1(866-1154) (Homo sapiens (Human), UniProt P23458). Kind of test: Caliper mobility shift kinase assay, JAK1. The note with it: IRS-1 peptide 5 μM, ATP 40 μM, 60 minutes at 30° C.
From the text: as §1, §2, §3, §4
(§10) 18 μI. […] The reactions were started by combining 9 μI of substrate mix (consisting of peptide and ATP) with 9 μI of kinase dilution. The reactions were incubated for 60 minutes at 30° C. and stopped by adding 70 μI of stop buffer (100 mM Hepes, 5% DMSO, 0.1% Coating reagent, 10 mM EDTA, 0.015% Brij 35).
(§11) Fluorescently labeled synthetic peptides were used as substrates in all reactions. […] Specific assay conditions are described in Table 4:
as §5, §6, §7, §8, §9
(§12) Assay plates: Identical assay plates were then prepared by pipetting 100 nL of compound dilutions of the master plates into 384-well “assay plates”. […] The preparation of the master plates were handled by the Matrix PlateMate Plus robot and replication of assay plates by the HummingBird robot.

Test [3] has as its target GST-TYK2(888-1187) (Homo sapiens (Human), UniProt P29597). Put plainly: Caliper mobility shift kinase assay, TYK2. The note with it: IRS-1 peptide 5 μM, ATP 30 μM, 60 minutes at 30° C.
From the text: as §1, §2, §3, §4, §10, §11, §5, §6, §7, §8, §9, §12

GST-JAK3(811-1124), sequence (P52333 811-1124): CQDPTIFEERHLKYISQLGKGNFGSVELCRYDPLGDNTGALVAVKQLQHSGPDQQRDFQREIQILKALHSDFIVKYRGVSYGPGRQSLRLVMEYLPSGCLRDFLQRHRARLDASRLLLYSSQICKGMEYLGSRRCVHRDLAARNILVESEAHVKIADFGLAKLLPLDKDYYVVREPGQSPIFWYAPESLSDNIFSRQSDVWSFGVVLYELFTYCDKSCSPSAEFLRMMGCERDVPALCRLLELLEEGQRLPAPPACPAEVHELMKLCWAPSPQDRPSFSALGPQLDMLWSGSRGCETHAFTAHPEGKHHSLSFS
GST-JAK1(866-1154), sequence (P23458 866-1154): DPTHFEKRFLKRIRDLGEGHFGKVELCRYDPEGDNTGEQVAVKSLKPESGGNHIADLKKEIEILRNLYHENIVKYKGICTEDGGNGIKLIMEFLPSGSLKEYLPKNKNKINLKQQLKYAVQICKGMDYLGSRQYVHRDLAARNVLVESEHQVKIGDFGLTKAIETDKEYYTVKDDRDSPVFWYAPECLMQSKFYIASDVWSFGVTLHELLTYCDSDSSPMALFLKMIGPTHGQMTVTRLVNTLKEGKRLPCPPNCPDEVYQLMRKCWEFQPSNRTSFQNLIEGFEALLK
GST-TYK2(888-1187), sequence (P29597 888-1187): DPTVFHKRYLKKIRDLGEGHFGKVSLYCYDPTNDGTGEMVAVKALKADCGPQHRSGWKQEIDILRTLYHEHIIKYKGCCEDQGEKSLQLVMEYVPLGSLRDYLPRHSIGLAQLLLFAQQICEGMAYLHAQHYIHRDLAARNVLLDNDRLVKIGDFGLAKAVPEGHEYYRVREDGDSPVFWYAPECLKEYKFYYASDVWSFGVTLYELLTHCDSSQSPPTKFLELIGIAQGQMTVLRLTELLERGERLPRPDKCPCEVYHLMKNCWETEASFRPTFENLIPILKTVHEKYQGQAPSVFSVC

As for `CNS(=O)(=O)C[C@H]1CC[C@H](N(C)c2ncnc3[nH]c(C)nc23)CC1` [compound 1], the IC50 in test [1] was found to be 7.93 µM.
For the compound `CNS(=O)(=O)C[C@H]1CC[C@H](N(C)c2ncnc3[nH]cnc23)CC1` [compound 2, N-methyl-1-[trans-4-[methyl(9H-purin-6-yl)amino]cyclohexyl]methanesulfonamide], the IC50 in test [1] amounted to 1.89 µM; in test [2] it was 0.582 µM; in test [3], 4.59 µM.
Taken in the same sequence, the figures for `CNS(=O)(=O)C[C@H]1CC[C@H](N(C)c2ncnc3[nH]ncc23)CC1` [compound 3] were greater than 10 µM, greater than 10 µM and greater than 10 µM.
`CNS(=O)(=O)C[C@H]1CC[C@H](N(C)c2ncnc3[nH]c(-c4ccccc4)nc23)CC1` [compound 4]: the IC50 in test [1], in test [2] and in test [3] was greater than 10 µM each time.
As to `CNS(=O)(=O)C[C@H]1CC[C@H](N(C)c2ncnc3[nH]c(Cc4ccccc4)nc23)CC1` [compound 5], the IC50 in test [1], in test [2] and in test [3] was greater than 10 µM in each case.
As to `CNS(=O)(=O)C[C@H]1CC[C@H](Oc2ncnn3cccc23)CC1` [compound 6], the IC50 in test [1], in test [2] and in test [3] was greater than 10 µM in each case.
For the compound `CNS(=O)(=O)C[C@H]1CC[C@H](N(C)c2nc(N)ncc2Br)CC1` [compound 7], the IC50 in test [1], in test [2] and in test [3] was greater than 10 µM throughout.
On to `CNS(=O)(=O)C[C@H]1CC[C@H](Nc2ncnc3sccc23)CC1` [compound 8], for which the IC50 in test [1], in test [2] and in test [3] was greater than 10 µM each time.
For the compound `CNS(=O)(=O)C[C@H]1CC[C@H](N(C)c2ncnc3sccc23)CC1` [compound 9], the IC50 in test [1], in test [2] and in test [3] was greater than 10 µM each time.
As for `CNS(=O)(=O)C[C@H]1CC[C@H](N(C)c2cc(Cl)nc(N)n2)CC1` [compound 10], the IC50 in test [1], in test [2] and in test [3] was greater than 10 µM in each case.
Turning to `CNS(=O)(=O)C[C@H]1CC[C@H](Nc2ccnc(N)n2)CC1` [compound 11], the IC50 in test [1], in test [2] and in test [3] was greater than 10 µM throughout.
On to `CNS(=O)(=O)C[C@H]1CC[C@H](Nc2nc(N)ncc2C)CC1` [compound 12], for which the IC50 in test [1], in test [2] and in test [3] was greater than 10 µM in each case.
In the case of `CNS(=O)(=O)C[C@H]1CC[C@H](Nc2nc(N)ncc2Br)CC1` [compound 13], the IC50 was greater than 10 µM in test [1] and 6 µM in test [3].
In the case of `CNS(=O)(=O)C[C@H]1CC[C@H](Nc2c(C#N)cnc3sccc23)CC1` [compound 14], the IC50 in test [1], in test [2] and in test [3] was greater than 10 µM each time.
With `CNS(=O)(=O)C[C@H]1CC[C@H](Nc2ncnn3cccc23)CC1` [compound 15], the IC50 in test [1], in test [2] and in test [3] was greater than 10 µM each time.
In the case of `CNS(=O)(=O)C[C@H]1CC[C@H](N(C)c2ccnc(N)n2)CC1` [compound 16], the IC50 in test [1], in test [2] and in test [3] was greater than 10 µM in each case.
As for `CNS(=O)(=O)C[C@H]1CC[C@H](N(C)c2c(C#N)cnc3sccc23)CC1` [compound 17], the IC50 in test [1], in test [2] and in test [3] was greater than 10 µM throughout.
Regarding `CNS(=O)(=O)C[C@H]1CC[C@H](N(C)c2c([N+](=O)[O-])cnc3[nH]ccc23)CC1` [compound 18], the IC50 in test [1] stood at 1.2 µM; in test [3], 0.39 µM.
As for `CNS(=O)(=O)C[C@H]1CC[C@H](Oc2ncnc3sccc23)CC1` [compound 19], the IC50 in test [1], in test [2] and in test [3] was greater than 10 µM throughout.
As to `CNS(=O)(=O)C[C@H]1CC[C@H](Oc2c(C#N)cnc3sccc23)CC1` [compound 20], the IC50 in test [1], in test [2] and in test [3] was greater than 10 µM in each case.
For `CNS(=O)(=O)C[C@H]1CC[C@H](N(C)c2nc(N)ncc2-c2ccccc2)CC1` [compound 21], the IC50 in test [1], in test [2] and in test [3] was greater than 10 µM in each case.
Take `CNS(=O)(=O)C[C@H]1CC[C@H](n2cnc3cnc4[nH]ccc4c32)CC1` [compound 22, 1-[trans-4-(imidazo[4,5-d]pyrrolo[2,3-b]pyridin-1(6H)-yl)cyclohexyl]-N-methylmethanesulfonamide]: the IC50 amounted to 0.26 µM in test [1], 0.01 µM in test [2] and 0.13 µM in test [3].
For the compound `CNS(=O)(=O)C[C@H]1CC[C@H](Nc2nc(N)ncc2-c2ccccc2)CC1` [compound 23], the IC50 in test [1], in test [2] and in test [3] was greater than 10 µM in each case.
Take `CNS(=O)(=O)C[C@H]1CC[C@H](N(C)c2c(C#N)cnn3cccc23)CC1` [compound 24]: the IC50 is greater than 10 µM in test [1], 0.93 µM in test [2] and 8.5 µM in test [3].
Regarding `CNS(=O)(=O)C[C@H]1CC[C@H](Oc2c([N+](=O)[O-])cnc3[nH]ccc23)CC1` [compound 25, N-methyl-1-[trans-4-[(5-nitro-1H-pyrrolo[2,3-b]pyridin-4-yl)oxy]cyclohexyl]methanesulfonamide], the IC50 in test [1] turned out to be 3.6 µM; in test [2], 0.071 µM.
For `CNS(=O)(=O)C[C@H]1CC[C@H](N(C)c2c(C#N)cnc3[nH]ccc23)CC1` [compound 26, 1-[trans-4-[(5-cyano-1H-pyrrolo[2,3-b]pyridin-4-yl)-methyl-amino]cyclohexyl]-N-methyl-methanesulfonamide], the IC50 came to 3 µM in test [1], 0.034 µM in test [2] and 0.84 µM in test [3].
For `CNS(=O)(=O)C[C@H]1CC[C@H](Nc2c(C#N)cnn3cccc23)CC1` [compound 27], the IC50 was greater than 10 µM in test [1] and 1.8 µM in test [2].
On to `CNS(=O)(=O)C[C@H]1CC[C@H](N(C)c2ncnn3cccc23)CC1` [compound 28], for which the IC50 in test [1] was greater than 10 µM; in test [2], 0.55 µM; in test [3], 3.2 µM.

Usually IC50 stands for the point on the concentration scale where inhibition reaches its midpoint.
